Values after ≈ are worked out from the molar mass of the structure shown.

Assay [1] is described as follows: DPPH radical elimination (antioxidant activity). The assay is classed as biochemical. The note with it: 100 μM DPPH in ethanol, 37° C., 30 minutes, absorbance 540 nm. The text has this:
In order to measure the antioxidant effect of the plant extract prepared using the high-pressure enzymatic decomposition technique, a DPPH radical elimination effect was compared between the green tea extract prepared using the high-pressure enzymatic decomposition technique of the present invention (Example 1), the green tea extract prepared using the solvent extraction technique (Comparative Example 3), and Baicalin, a known antioxidant substance.
To measure the antioxidant effects of these extracts, a method of evaluating antioxidant activity based on the change in absorbance caused by the reduction of the organic radical DPPH (1,1-diphenyl-2-picrylhydrazyl) was used. The decrease in absorbance caused by the inhibition of oxidation of DPPH compared to the control was measured, and the concentration (IC50) at which the absorbance was 50% of the control was defined as the effective antioxidant concentration. A lower IC50 value indicates a higher DPPH removal effect, indicating higher antioxidant activity.
Specifically, 10 μl of each of the extracts of Example 1 and Comparative Example 3 and Baicalin was added to 100 μM of a solution of DPPH in ethanol to prepare a reaction solution. The reaction solution was allowed to react at 37° C. for 30 minutes, and then measured for absorbance at 540 nm.
(In general: DPPH is a stable violet radical that fades when it is reduced.)

The test system of another assay is transglutaminase-1. In words: Promotion of transglutaminase-1 synthesis in human skin cells. It counts as cell-based. To be noted: concentration 1.5 mM, 2 days. The method, then:
Because the synthesis of transglutaminase-1 is essential for the formation and maintenance of the horny layer, the effect of promoting the synthesis of transglutaminase-1 can be considered to enhance the skin barrier and increase the skin moisturizing effect. Specifically, human skin cells were added to each well of a 96-well plate at a density of 5×10^4 cells/well and allowed to adhere to each well for 24 hours. The adhered cells were treated with each of the test materials, and after 2 days, the medium was removed, and the cells were stored in a refrigerator at −20° C. The treated cells were disrupted by subjecting the cells twice to freeze-thawing, and then treated with a mixture of acetone:ethanol (1:1, v/v) stored at −20° C. Then, the cells were allowed to stand at 4° C. for 30 minutes so as to be immobilized. Then, the cells were allowed to stand at room temperature to evaporate the organic solvent. […] The expression level of transglutaminase in the cells was determined by measuring the absorbance at 490 nm, and the correction of the measurement was carried out by measuring the background at 630 nm. The absorbance values of the treated cells were compared with the absorbance value of an untreated control group, thereby calculating the rate of promotion of transglutaminase-1 synthesis, and the results of the calculation are shown in Table 6 below.

The test system of another assay is tyrosinase. The assay can be described thus: Tyrosinase activity inhibition (method of Vanni et al). The note with it: concentration 200 mg/ml; 37° C., 10 minutes. It counts as biochemical.

From the text for tyrosinase: In order to measure the skin whitening effect of the plant extract prepared using the high-pressure enzymatic decomposition technique, a tyrosinase activity inhibitory effect was compared between the green tea extract of Example 1 prepared using the high-pressure enzymatic decomposition technique of the present invention, the green tea extract of Comparative Example 3 prepared using the solvent extraction technique, and vitamin C, a typical whitening functional component.
The tyrosinase activity inhibitory effect was measured using the method of Vanni at al (A. Vanni, Annali Di Chimica, 80, p35, 1990). Specifically, 1.0 ml of 0.1M potassium phosphate buffer (pH 6.8), 1.0 ml of 0.3 mg/ml tyrosine aqueous solution and 0.1 ml of 1,250 units/ml tyrosinase (SIGMAT-7755) were mixed with each other, and 0.2 ml of each sample solution was added thereto at a concentration of 200 mg/ml. Then, the mixture was subjected to an enzymatic reaction at 37° C., for 10 minutes. The absorbance of the reaction solution was measured at 480 nm, and based on the results of the measurement, the tyrosinase activity inhibitory rate (%) of each sample was calculated according to the following equation 2. […]
wherein A: absorbance at 480 nm of a reaction solution to which the sample was not added; and B: absorbance at 480 nm of a reaction solution to which the sample was added.

Regarding `O=C(O)[C@H]1O[C@@H](Oc2cc3oc(-c4ccccc4)cc(=O)c3c(O)c2O)[C@H](O)[C@@H](O)[C@@H]1O` [Baicalin], in assay [1], the “IC50 (DPPH radical elimination)” value was determined as 3100 µg/mL (≈ 6.95 mM).
For `[Ca+2].[Cl-].[Cl-]` [Calcium chloride, calcium chloride], in the assay on transglutaminase-1, the “Promotion rate of transglutaminase-1 synthesis (%)” value was found to be 169.9 ± 6.4%.
In the case of `O=C1O[C@H]([C@@H](O)CO)C(O)=C1O` [Vitamin C, vitamin C], in the assay on tyrosinase, the “Tyrosinase activity inhibitory rate (%)” value worked out at 20%.

Source of the values: patent publication US20110117220A1, “PREPARATION METHOD OF PLANT EXTRACT USING HIGH PRESSURE-ENZYMATIC DECOMPOSITION TECHNIQUE AND THE COSMETIC COMPOSITION CONTAINING THE EXTRACT” (AMOREPACIFIC CORPORATION, priority 2009, published 2011).
